Assay [1] concerns the target T1, HiBit-BRG1 fusion protein in stable HeLa cell line expressing HiBit-BRG1 and LgBit (Homo sapiens, UniProt P51532).
T1 construct: expressed in transfected cells
Put plainly: HiBiT-BRG1 cell-based degradation assay (Nano-Glo HiBiT, 24 h). Particulars: HeLa HiBit-BRG1/LgBit cells; for Dmax: top dose 30 μM, read-out: BRG1 HiBit Degradation Maximum (%); for DC50: read-out: BRMG1 HiBit Degradation IC50. A digest of the protocol: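 Degradation calculated from NanoBiT luminescence relative to DMSO-treated cells (high) and cells given 2 μM known BRM/BRG1 degrader (low). HeLa cells stably expressing HiBiT-BRG1 plus LgBiT were exposed to compound for 24 h before lytic HiBiT detection.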
On the technique in general: HiBiT is a short tag that completes a luciferase, so light tracks the accessible tagged protein.

In assay [2] the target is T2, HiBiT-BRM fusion protein in stable HeLa cell line (Homo sapiens, UniProt P51531).
T2 construct: expressed in transfected cells
T2 sequence (P51531 whole entry, the tested form may be a part): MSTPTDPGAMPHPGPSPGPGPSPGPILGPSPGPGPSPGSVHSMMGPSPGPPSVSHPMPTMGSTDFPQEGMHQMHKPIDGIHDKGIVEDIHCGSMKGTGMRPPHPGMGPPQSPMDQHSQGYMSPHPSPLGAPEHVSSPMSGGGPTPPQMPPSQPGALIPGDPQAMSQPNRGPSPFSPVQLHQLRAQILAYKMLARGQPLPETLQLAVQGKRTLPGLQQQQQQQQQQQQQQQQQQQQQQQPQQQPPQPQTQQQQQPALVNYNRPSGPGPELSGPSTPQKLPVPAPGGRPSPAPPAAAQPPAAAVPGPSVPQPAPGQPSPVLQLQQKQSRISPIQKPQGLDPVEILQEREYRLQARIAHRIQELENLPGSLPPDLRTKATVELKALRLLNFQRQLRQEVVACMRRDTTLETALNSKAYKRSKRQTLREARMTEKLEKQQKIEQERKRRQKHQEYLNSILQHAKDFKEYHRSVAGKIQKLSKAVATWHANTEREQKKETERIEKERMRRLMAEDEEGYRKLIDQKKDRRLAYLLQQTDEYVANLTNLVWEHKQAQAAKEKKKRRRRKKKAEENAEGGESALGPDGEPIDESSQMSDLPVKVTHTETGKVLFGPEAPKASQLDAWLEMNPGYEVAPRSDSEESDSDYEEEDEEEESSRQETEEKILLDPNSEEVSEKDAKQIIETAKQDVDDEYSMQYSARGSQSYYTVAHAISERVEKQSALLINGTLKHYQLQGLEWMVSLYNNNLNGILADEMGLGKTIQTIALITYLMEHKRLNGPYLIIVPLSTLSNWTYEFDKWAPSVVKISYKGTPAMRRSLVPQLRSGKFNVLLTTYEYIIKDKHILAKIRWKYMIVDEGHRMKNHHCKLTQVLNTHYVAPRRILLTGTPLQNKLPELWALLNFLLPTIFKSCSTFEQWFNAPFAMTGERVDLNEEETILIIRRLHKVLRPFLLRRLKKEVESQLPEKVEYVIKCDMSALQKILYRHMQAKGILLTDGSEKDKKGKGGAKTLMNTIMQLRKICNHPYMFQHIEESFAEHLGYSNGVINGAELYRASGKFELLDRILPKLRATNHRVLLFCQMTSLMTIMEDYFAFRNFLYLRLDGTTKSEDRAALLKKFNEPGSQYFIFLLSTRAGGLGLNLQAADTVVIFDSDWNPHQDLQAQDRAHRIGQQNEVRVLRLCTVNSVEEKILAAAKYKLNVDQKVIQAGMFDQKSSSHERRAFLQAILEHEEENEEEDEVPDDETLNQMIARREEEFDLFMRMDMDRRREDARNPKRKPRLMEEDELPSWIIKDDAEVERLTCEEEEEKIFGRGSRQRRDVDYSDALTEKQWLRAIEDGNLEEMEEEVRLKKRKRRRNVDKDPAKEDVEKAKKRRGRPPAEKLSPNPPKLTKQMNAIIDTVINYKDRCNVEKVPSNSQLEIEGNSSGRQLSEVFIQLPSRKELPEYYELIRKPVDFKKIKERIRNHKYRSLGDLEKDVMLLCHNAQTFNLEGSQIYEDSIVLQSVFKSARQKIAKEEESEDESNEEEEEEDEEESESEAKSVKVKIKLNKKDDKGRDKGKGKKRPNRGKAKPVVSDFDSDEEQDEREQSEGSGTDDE
The assay can be described thus: HiBiT-BRM cell-based degradation assay (Nano-Glo HiBiT Lytic Detection, 24 h). Also on record: DC50: scale not given here. As to conditions: HeLa HiBiT-BRM cells; for DC50: read-out: BRM HiBit Degradation IC50; for BRM HiBit Degradation Maximum (%): top dose 30 μM. A digest of the protocol:
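Percent degradation was scaled between DMSO-treated cells and cells given 2 μM of a known BRM/BRG1 degrader. Readout was NanoBiT luminescence after lytic detection. HeLa cells stably expressing HiBiT-BRM were dosed for 24 h, 10 points, 3-fold steps from 30 μM final, in duplicate.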

T1 sequence (P51532 whole entry, the tested form may be a part): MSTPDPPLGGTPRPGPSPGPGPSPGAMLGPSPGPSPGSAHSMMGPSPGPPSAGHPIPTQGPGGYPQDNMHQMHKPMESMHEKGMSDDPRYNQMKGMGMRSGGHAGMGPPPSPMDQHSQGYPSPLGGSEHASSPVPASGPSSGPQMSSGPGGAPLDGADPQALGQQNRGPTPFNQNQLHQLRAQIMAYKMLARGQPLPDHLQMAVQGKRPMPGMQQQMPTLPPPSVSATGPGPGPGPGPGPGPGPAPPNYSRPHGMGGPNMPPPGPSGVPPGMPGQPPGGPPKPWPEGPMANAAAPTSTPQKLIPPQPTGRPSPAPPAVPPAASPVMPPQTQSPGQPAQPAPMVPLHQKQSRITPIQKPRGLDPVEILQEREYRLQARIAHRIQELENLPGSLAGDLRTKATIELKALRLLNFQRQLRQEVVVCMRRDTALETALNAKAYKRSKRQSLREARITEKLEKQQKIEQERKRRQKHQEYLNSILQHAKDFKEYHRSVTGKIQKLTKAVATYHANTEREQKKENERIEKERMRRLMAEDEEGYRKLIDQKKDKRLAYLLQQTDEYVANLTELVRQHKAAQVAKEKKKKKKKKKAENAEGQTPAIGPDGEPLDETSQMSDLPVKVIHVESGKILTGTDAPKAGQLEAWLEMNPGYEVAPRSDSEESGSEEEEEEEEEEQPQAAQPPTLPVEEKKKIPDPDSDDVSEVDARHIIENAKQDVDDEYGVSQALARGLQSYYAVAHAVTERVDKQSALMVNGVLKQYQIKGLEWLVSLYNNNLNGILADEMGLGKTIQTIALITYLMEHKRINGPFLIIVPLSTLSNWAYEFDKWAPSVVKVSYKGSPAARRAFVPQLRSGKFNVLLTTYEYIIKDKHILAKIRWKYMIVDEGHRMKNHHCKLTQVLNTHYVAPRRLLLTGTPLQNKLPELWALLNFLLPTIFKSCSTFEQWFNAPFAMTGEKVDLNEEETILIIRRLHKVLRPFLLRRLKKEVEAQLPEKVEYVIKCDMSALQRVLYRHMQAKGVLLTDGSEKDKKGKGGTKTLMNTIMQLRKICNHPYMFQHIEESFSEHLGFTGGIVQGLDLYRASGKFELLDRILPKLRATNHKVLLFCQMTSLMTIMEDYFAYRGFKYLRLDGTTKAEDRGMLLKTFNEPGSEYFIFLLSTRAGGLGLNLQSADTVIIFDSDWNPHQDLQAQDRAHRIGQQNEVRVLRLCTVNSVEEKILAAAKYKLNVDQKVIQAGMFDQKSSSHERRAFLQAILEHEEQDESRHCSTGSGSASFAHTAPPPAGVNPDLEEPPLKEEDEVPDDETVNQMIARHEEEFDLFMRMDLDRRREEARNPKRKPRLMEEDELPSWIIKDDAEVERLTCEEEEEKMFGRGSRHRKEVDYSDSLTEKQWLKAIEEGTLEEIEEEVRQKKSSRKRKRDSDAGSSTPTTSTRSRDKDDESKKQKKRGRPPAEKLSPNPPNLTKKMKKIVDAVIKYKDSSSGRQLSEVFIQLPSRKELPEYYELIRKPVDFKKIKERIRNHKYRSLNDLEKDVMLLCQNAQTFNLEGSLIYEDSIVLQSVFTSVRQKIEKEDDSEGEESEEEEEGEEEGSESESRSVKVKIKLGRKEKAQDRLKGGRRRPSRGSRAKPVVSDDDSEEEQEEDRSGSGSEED

Take `C#Cc1ccc(CNC(=O)[C@@H]2C[C@@H](O)CN2C(=O)[C@H](C(C)C)n2cc(N3CC4(CN(c5ccc6cc(-c7ccccc7O)nnc6c5)C4)C3)nn2)cc1` [Compound 255, (2S,4R)-N-(4-ethynylbenzyl)-4-hydroxy-1-((S)-2-(4-(6-(3-(2-hydroxyphenyl)cinnolin-7-yl)-2,6-diazaspiro[3.3]heptan-2-yl)-1H-1,2,3-triazol-1-yl)-3-methylbutanoyl)pyrrolidine-2-carboxamide]: the Dmax in assay [1] was below 50%. Also, in assay [2], the DC50 is below 10 nM and the “BRM HiBit Degradation Maximum (%)” value is “A (“A” indicates maximum degradation ≥75%)”.

For the compound `Cc1ncsc1-c1ccc([C@H](C)NC(=O)[C@@H]2C[C@@H](O)CN2C(=O)[C@@H](c2cc(N3CCC(N4CC5(CN(Cc6ccc7nnc(-c8ccccc8O)cc7c6)C5)C4)CC3)no2)C(C)C)cc1` [Compound 256, (2S,4R)-4-hydroxy-1-((R)-2-(3-(4-(6-((3-(2-hydroxyphenyl)cinnolin-6-yl)methyl)-2,6-diazaspiro [3.3]heptan-2-yl)piperidin-1-yl)isoxazol-5-yl)-3-methylbutanoyl)-N-((S)-1-(4-(4-methylthiazol-5-yl)phenyl)ethyl)pyrrolidine-2-carboxamide], in assay [1], the DC50 is above 10 nM and the Dmax is above 75%. In addition, in assay [2], the DC50 is above 100 nM and the “BRM HiBit Degradation Maximum (%)” value is “B (“B” indicates maximum degradation ≥50%)”.

As to `Cc1ncsc1-c1ccc([C@@H](C)NC(=O)[C@H]2C[C@H](O)CN2C(=O)[C@H](C(C)C)n2cc(N3CC4(CN(c5ccc6nnc(-c7ccccc7O)cc6c5)C4)C3)cn2)cc1` [Compound 258, (2R,4S)-4-hydroxy-1-[(2S)-2-(4-{6-[3-(2-hydroxyphenyl)cinnolin-6-yl]-2,6-diazaspiro[3.3]heptan-2-yl}pyrazol-1-yl)-3-methylbutanoyl]-N-[(1R)-1-[4-(4-methyl-1,3-thiazol-5-yl)phenyl]ethyl]pyrrolidine-2-carboxamide], in assay [1], the DC50 was above 10 nM and the Dmax is above 50%. In assay [2], the DC50 was above 10 nM and the “BRM HiBit Degradation Maximum (%)” value was “A (“A” indicates maximum degradation ≥75%)”.

With `Cc1ncsc1-c1ccc([C@H](C)NC(=O)[C@@H]2C[C@@H](O)CN2C(=O)C(C(C)C)n2cc(N3CCC(CN4CCN(c5ccc6cc(-c7ccccc7O)nnc6c5)CC4)CC3)nn2)cc1` (stereo partly drawn) [Compound 259, (2S,4R)-4-hydroxy-1-(2-(4-(4-((4-(3-(2-hydroxyphenyl)cinnolin-7-yl)piperazin-1-yl)methyl)piperidin-1-yl)-1H-1,2,3-triazol-1-yl)-3-methylbutanoyl)-N-((S)-1-(4-(4-methylthiazol-5-yl)phenyl)ethyl)pyrrolidine-2-carboxamide], in assay [1], the DC50 was above 10 nM and the Dmax is above 75%. Further, in assay [2], the DC50 was below 10 nM and the “BRM HiBit Degradation Maximum (%)” value was “A (“A” indicates maximum degradation ≥75%)”.

`Cc1ncsc1-c1ccc([C@H](C)NC(=O)[C@@H]2C[C@@H](O)CN2C(=O)C(C(C)C)n2cc(N3CCN(CC4CCCN(c5ccc6cc(-c7ccccc7O)nnc6c5)C4)CC3)nn2)cc1` (stereo partly drawn) [Compound 260, (2S,4R)-4-hydroxy-1-(2-(4-(4-((1-(3-(2-hydroxyphenyl)cinnolin-7-yl)piperidin-3-yl)methyl)piperazin-1-yl)-1H-1,2,3-triazol-1-yl)-3-methylbutanoyl)-N-((S)-1-(4-(4-methylthiazol-5-yl)phenyl)ethyl)pyrrolidine-2-carboxamide]: in assay [1], the DC50 was above 10 nM and the Dmax was above 75%. In assay [2], the DC50 was above 10 nM and the “BRM HiBit Degradation Maximum (%)” value was “A (“A” indicates maximum degradation ≥75%)”.

Consider `Cc1ncsc1-c1ccc([C@H](C)NC(=O)[C@@H]2C[C@@H](O)CN2C(=O)C(C(C)C)n2cc(N3CCCC(CN4CCN(c5ccc6cc(-c7ccccc7O)nnc6c5)CC4)C3)nn2)cc1` (stereo partly drawn) [Compound 261, (2S,4R)-4-hydroxy-1-(2-(4-(3-((4-(3-(2-hydroxyphenyl)cinnolin-7-yl)piperazin-1-yl)methyl)piperidin-1-yl)-1H-1,2,3-triazol-1-yl)-3-methylbutanoyl)-N-((S)-1-(4-(4-methylthiazol-5-yl)phenyl)ethyl)pyrrolidine-2-carboxamide], for which, in assay [1], the DC50 was above 10 nM and the Dmax was above 75%. For the same compound, in assay [2], the DC50 is above 10 nM and the “BRM HiBit Degradation Maximum (%)” value is reported as “A (“A” indicates maximum degradation ≥75%)”.

As to `Cc1ncsc1-c1ccc([C@H](C)NC(=O)[C@@H]2C[C@@H](O)CN2C(=O)C(C(C)C)n2cc(N3CCC4(CCCN4c4ccc5cc(-c6ccccc6O)nnc5c4)C3)nn2)cc1` (stereo partly drawn) [Compound 262, (2S,4R)-4-hydroxy-1-(2-(4-(1-(3-(2-hydroxyphenyl)cinnolin-7-yl)-1,7-diazaspiro[4.4]nonan-7-yl)-1H-1,2,3-triazol-1-yl)-3-methylbutanoyl)-N-((S)-1-(4-(4-methylthiazol-5-yl)phenyl)ethyl)pyrrolidine-2-carboxamide], in assay [1], the DC50 is above 100 nM and the Dmax is above 50%. For the same compound, in assay [2], the DC50 is above 100 nM and the “BRM HiBit Degradation Maximum (%)” value is reported as “A (“A” indicates maximum degradation ≥75%)”.

For the compound `Cc1ncsc1-c1ccc([C@H](C)NC(=O)[C@@H]2C[C@@H](O)CN2C(=O)C(C(C)C)n2cc(N3CCC4C(C3)CN4c3ccc4cc(-c5ccccc5O)nnc4c3)nn2)cc1` (stereo partly drawn) [Compound 263, (2S,4R)-4-hydroxy-1-(2-(4-(7-(3-(2-hydroxyphenyl)cinnolin-7-yl)-3,7-diazabicyclo[4.2.0]octan-3-yl)-1H-1,2,3-triazol-1-yl)-3-methylbutanoyl)-N-((S)-1-(4-(4-methylthiazol-5-yl)phenyl)ethyl)pyrrolidine-2-carboxamide], in assay [1], the DC50 was above 10 nM and the Dmax is above 75%. In assay [2], the DC50 was above 10 nM and the “BRM HiBit Degradation Maximum (%)” value is “A (“A” indicates maximum degradation ≥75%)”.

Turning to `Cc1ncsc1-c1ccc([C@H](C)NC(=O)[C@@H]2C[C@@H](O)CN2C(=O)C(C(C)C)n2cc(N3CCC4(CCN4c4ccc5cc(-c6ccccc6O)nnc5c4)C3)nn2)cc1` (stereo partly drawn) [Compound 264, (2S,4R)-4-hydroxy-1-(2-(4-(1-(3-(2-hydroxyphenyl)cinnolin-7-yl)-1,6-diazaspiro[3.4]octan-6-yl)-1H-1,2,3-triazol-1-yl)-3-methylbutanoyl)-N-((S)-1-(4-(4-methylthiazol-5-yl)phenyl)ethyl)pyrrolidine-2-carboxamide], the Dmax in assay [1] is below 50%. Besides, in assay [2], the DC50 was above 10 nM and the “BRM HiBit Degradation Maximum (%)” value is listed as “A (“A” indicates maximum degradation ≥75%)”.

Consider `Cc1ncsc1-c1ccc([C@H](C)NC(=O)[C@@H]2C[C@@H](O)CN2C(=O)C(C(C)C)n2cc(N3CCC34CN(c3ccc5cc(-c6ccccc6O)nnc5c3)C4)nn2)cc1` (stereo partly drawn) [Compound 265, (2S,4R)-4-hydroxy-1-(2-(4-(6-(3-(2-hydroxyphenyl)cinnolin-7-yl)-1,6-diazaspiro[3.3]heptan-1-yl)-1H-1,2,3-triazol-1-yl)-3-methylbutanoyl)-N-((S)-1-(4-(4-methylthiazol-5-yl)phenyl)ethyl)pyrrolidine-2-carboxamide], for which, in assay [1], the DC50 was above 100 nM and the Dmax was above 75%. Also, in assay [2], the DC50 was above 100 nM and the “BRM HiBit Degradation Maximum (%)” value is reported as “A (“A” indicates maximum degradation ≥75%)”.

Source of the values: patent US20260193264A1, “BENZOYPARAZINE PYRAZINES AND THEIR USES” (FOGHORN THERAPEUTICS INC., priority 2022, published 2026).
